Source: PubChem BioAssay AID977621 (Broad Institute, 2014)
Inconclusive results are not listed. Active and inactive are the calls of the source.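 Rule for the calls: active = Wild-type ribosome reporter drop at least double the humanized mutant ribosome reporter drop, growth loss under a set limit; inconclusive = no clear call, values can overlap the other calls; inactive = the rest.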

Tested on: E. coli wild-type GFP strain growth, fluorescence, 24 h
Assay: wild-type E. coli growth inhibition versus H69 humanized strain – H69 mutant RFP, wild-type GFP, cherry-pick, dose response (AID 977621);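 note: wild-type GFP and H69 mutant RFP strains grown together 50/50 in each well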
[1] = E. coli mixed culture, 24 h, measured here: total growth OD600, test 2

SMILES | AC50 | AC50 [1] [µM]
CC(=O)Nc1cccc(Nc2nc(-c3ccccc3)nc3ccccc23)c1 | > 100 µM (inactive) | 5.27
Cc1cc(C(=O)COC(=O)c2ccc(Br)o2)c(C)n1C | > 100 µM (inactive) | 48.4
C=CCN(CC=C)C(=O)c1ccc2nc(Cc3ccc(OC)c(OC)c3)oc2c1 | > 100 µM (inactive) | > 100
COc1ccc(NC(=O)CCS(=O)(=O)c2ccccc2Cl)cc1S(=O)(=O)Nc1ccc(Cl)cc1 | – | > 100
O=C(COC(=O)CCSc1ccc(F)cc1)NCc1ccc(F)cc1 | > 100 µM (inactive) | –
CC1CCCC(NC(=O)COC(=O)[C@@H]2CC(O)CN2S(=O)(=O)c2ccc3c(c2)OCCO3)C1C (stereo partly specified) | – | > 100
C[C@@H]1CN([C@@H](C)CO)C(=O)c2cc(NC(=O)Nc3cccc4ccccc34)ccc2O[C@@H](C)CCCCO[C@@H]1CN(C)C | – | > 100
COc1ccccc1N(C)S(=O)(=O)c1ccc(C(=O)NC(C)c2ccccc2)cc1 (stereo unspecified) | > 100 µM (inactive) | –
CCN(c1ccc(OC)cc1)S(=O)(=O)c1cc(-c2cc(C)no2)ccc1OC | > 100 µM (inactive) | 36.8
CCN(c1cccc2ccccc12)S(=O)(=O)c1ccc(Cl)nc1 | > 100 µM (inactive) | –
CC(C)CN(C(=O)c1cc([N+](=O)[O-])cc([N+](=O)[O-])c1)C1CCS(=O)(=O)C1 (stereo unspecified) | – | > 100
CC(C)(C)c1ccc(S(=O)(=O)NCc2ccc(C(=O)NCc3ccccn3)cc2)cc1 | – | > 100
CCOc1ccc2[nH]c3c(NCCN(C)C)ncnc3c2c1 | – | > 100
Cc1nc(SCC(=O)Nc2ccc3c(c2)OCCO3)nc(C)c1C | – | 43.7
N#Cc1ccccc1CSc1nc2ccc(NC(=O)c3ccccc3C(=O)O)cc2s1 | > 100 µM (inactive) | –
COc1ccc(OC)c(NC(=O)COc2ccc(S(=O)(=O)NC(C)C)cc2)c1 | – | > 100
Cc1ccc(S(=O)(=O)Nc2cccc(-c3ccc(N4CCCCCC4)nn3)c2)cc1 | > 100 µM (inactive) | 28.9
COc1ccccc1CCNC(=O)c1cccc(NC(=O)CC2SC(N3CCCCC3)=NC2=O)c1 (stereo unspecified) | > 100 µM (inactive) | –

SMILES | AC50 | AC50 [1] [µM]
O=C(CSc1ccccc1)NCCCc1ccccc1 | – | > 100
COCC(C)NC(=O)c1nn(Cc2ccccc2)c(=O)c2ccccc12 (stereo unspecified) | – | 28.2
N#Cc1nc(Cc2ccccc2)oc1N1CCCC1 | > 100 µM (inactive) | –
O=C1Nc2ccc(F)cc2C12Nc1ccccc1-c1nnc(SCc3ccccc3)nc1O2 (stereo unspecified) | > 100 µM (inactive) | –
Cc1ccc(-c2cc[n+](Cc3ccccc3)cc2)cc1 | – | > 100
N#Cc1nc(-c2ccco2)oc1NCc1ccccc1Cl | – | 49.6
C[C@@H]1NS(=O)(=O)c2c(F)cccc2O[C@@H]1c1ccccc1 | > 100 µM (inactive) | –
Cc1ccc(C)c(N2CCN(C(=O)CCS(=O)(=O)c3ccc4c(c3)oc(=O)n4C)CC2)c1 | – | > 100
CC(=O)Nc1ccc(NS(=O)(=O)c2ccc(Cl)s2)cc1 | > 100 µM (inactive) | –
COc1ccc(Cn2c(=O)c3[nH]cnc3n(-c3ccc(C)cc3)c2=O)cc1 | > 100 µM (inactive) | –
CCOC(=O)c1c(CS(=O)(=O)c2ccccc2)n(C)c2cc(Br)c(O)cc12 | > 100 µM (inactive) | > 100
O=C(CSc1ccncc1)Nc1ccc2ccccc2c1 | > 100 µM (inactive) | 30
O=C(Nc1cc(S(=O)(=O)N2CCCCC2)ccc1N1CCCCC1)C1CC1 | – | > 100
COc1ccccc1NC(=O)Cn1cc(C(=O)c2ccco2)c2ccccc21 | > 100 µM (inactive) | 31.3
COCC#Cc1ccc2c(c1)O[C@@H](CN(C)S(=O)(=O)c1cccc(F)c1)[C@@H](C)CN([C@H](C)CO)S2(=O)=O | – | 51.3
CC(=O)c1cccc(NC(=O)COC(=O)C2CCCN2C(=O)c2cccs2)c1 (stereo unspecified) | > 100 µM (inactive) | –
O=C(NCc1nnc(SCc2ccccc2)n1-c1ccccc1)C12CC3CC(CC(C3)C1)C2 | > 100 µM (inactive) | 38.6
COc1ccc(CC(=O)Nc2nc(-c3cc(OC)ccc3OC)cs2)cc1 | > 100 µM (inactive) | 20.9
